Tests used:
Assay in all cases: Test C pre-/postemergence greenhouse test, plant response rating 0-100
Type in all cases: in vivo
[1] = tested on: johnsongrass (Sorghum halepense); details: Postemergence; for Plant response rating, Johnsongrass: scale 0 to 100
Procedure, shortened: (§1)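 Pre- and postemergence greenhouse test: seeds sown in loam/sand and treated preemergence, or plants at 2–18 cm (1- to 4-leaf stage) in peat-based medium sprayed postemergence, with compounds in non-phytotoxic solvent plus surfactant. Visual rating versus untreated controls after 13–15 days, 0 (no effect) to 100 (complete control).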

[2] = tested on: morningglory (Ipomoea coccinea); details: Postemergence; for Plant response rating, Morningglory: scale 0 to 100
Procedure, shortened: as §1

[3] = tested on: giant foxtail (Setaria faberii); details: Postemergence; for Plant response rating, Foxtail, Giant: scale 0 to 100
Procedure, shortened: as §1

[4] = tested on: Italian ryegrass (Lolium multiflorum); details: Postemergence; for Plant response rating, Ryegrass, Italian: scale 0 to 100
Procedure, shortened: as §1

[5] = tested on: pigweed (Amaranthus retroflexus); details: Postemergence; for Plant response rating, Pigweed: scale 0 to 100
Procedure, shortened: as §1

[6] = tested on: galium (catchweed bedstraw, Galium aparine); details: Postemergence; for Plant response rating, Galium: scale 0 to 100
Procedure, shortened: as §1

[7] = tested on: lambsquarters (Chenopodium album); details: Postemergence; for Plant response rating, Lambsquarters: scale 0 to 100
Procedure, shortened: as §1

[8] = tested on: velvetleaf (Abutilon theophrasti); details: Postemergence; for Plant response rating, Velvetleaf: scale 0 to 100
Procedure, shortened: as §1

[9] = tested on: soybean (Glycine max); details: Postemergence; for Plant response rating, Soybean: scale 0 to 100
Procedure, shortened: as §1

[10] = tested on: yellow nutsedge (Cyperus esculentus); details: Postemergence; for Plant response rating, Nutsedge, Yellow: scale 0 to 100
Procedure, shortened: as §1

[11] = tested on: winter wheat (Triticum aestivum); details: Postemergence; for Plant response rating, Wheat: scale 0 to 100
Procedure, shortened: as §1

[12] = tested on: large (Lg) crabgrass (Digitaria sanguinalis); details: Postemergence; for Plant response rating, Crabgrass, Large: scale 0 to 100
Procedure, shortened: as §1

[13] = tested on: corn (Zea mays); details: Postemergence; for Plant response rating, Corn: scale 0 to 100
Procedure, shortened: as §1

Fc1ccc(NN=C(c2ccccc2)c2c[nH]nc2-c2cc(Cl)cc(Cl)c2)cc1 [Compound 35]
100: Plant response rating (0 to 100), Pigweed ([5]; 125 g ai/ha) | Plant response rating, Pigweed ([5]; 250 g ai/ha) | Plant response rating, Pigweed ([5]; 500 g ai/ha) | Plant response rating, Lambsquarters ([7]; 250 g ai/ha) | Plant response rating, Lambsquarters ([7]; 500 g ai/ha)
70: Plant response rating, Velvetleaf ([8]; 250 g ai/ha) | Plant response rating, Velvetleaf ([8]; 500 g ai/ha)
10: Plant response rating (0 to 100), Soybean ([9]; 62 g ai/ha) | Plant response rating (0 to 100), Soybean ([9]; 125 g ai/ha) | Plant response rating, Soybean ([9]; 250 g ai/ha) | Plant response rating, Soybean ([9]; 500 g ai/ha)
60: Plant response rating (0 to 100), Velvetleaf ([8]; 62 g ai/ha)
65: Plant response rating (0 to 100), Velvetleaf ([8]; 125 g ai/ha)
5: Plant response rating, Morningglory ([2]; 250 g ai/ha) | Plant response rating, Morningglory ([2]; 500 g ai/ha) | Plant response rating, Foxtail, Giant ([3]; 500 g ai/ha) | Plant response rating, Galium ([6]; 500 g ai/ha) | Plant response rating (0 to 100), Nutsedge, Yellow ([10]; 125 g ai/ha) | Plant response rating, Nutsedge, Yellow ([10]; 250 g ai/ha) | Plant response rating, Nutsedge, Yellow ([10]; 500 g ai/ha) | Plant response rating (0 to 100), Crabgrass, Large ([12]; 62 g ai/ha) | Plant response rating (0 to 100), Crabgrass, Large ([12]; 125 g ai/ha) | Plant response rating, Crabgrass, Large ([12]; 250 g ai/ha) | Plant response rating, Crabgrass, Large ([12]; 500 g ai/ha) | Plant response rating, Corn ([13]; 250 g ai/ha) | Plant response rating, Corn ([13]; 500 g ai/ha)
85: Plant response rating (0 to 100), Pigweed ([5]; 62 g ai/ha)
0: Plant response rating (0 to 100), Johnsongrass ([1]; 62 g ai/ha) | Plant response rating (0 to 100), Johnsongrass ([1]; 125 g ai/ha) | Plant response rating, Johnsongrass ([1]; 250 g ai/ha) | Plant response rating, Johnsongrass ([1]; 500 g ai/ha) | Plant response rating (0 to 100), Morningglory ([2]; 62 g ai/ha) | Plant response rating (0 to 100), Morningglory ([2]; 125 g ai/ha) | Plant response rating (0 to 100), Foxtail, Giant ([3]; 62 g ai/ha) | Plant response rating (0 to 100), Foxtail, Giant ([3]; 125 g ai/ha) | Plant response rating, Foxtail, Giant ([3]; 250 g ai/ha) | Plant response rating (0 to 100), Ryegrass, Italian ([4]; 62 g ai/ha) | Plant response rating (0 to 100), Ryegrass, Italian ([4]; 125 g ai/ha) | Plant response rating, Ryegrass, Italian ([4]; 250 g ai/ha) | Plant response rating, Ryegrass, Italian ([4]; 500 g ai/ha) | Plant response rating (0 to 100), Galium ([6]; 62 g ai/ha) | Plant response rating (0 to 100), Galium ([6]; 125 g ai/ha) | Plant response rating, Galium ([6]; 250 g ai/ha) | Plant response rating (0 to 100), Nutsedge, Yellow ([10]; 62 g ai/ha) | Plant response rating (0 to 100), Wheat ([11]; 62 g ai/ha) | Plant response rating (0 to 100), Wheat ([11]; 125 g ai/ha) | Plant response rating, Wheat ([11]; 250 g ai/ha) | Plant response rating, Wheat ([11]; 500 g ai/ha) | Plant response rating (0 to 100), Corn ([13]; 62 g ai/ha) | Plant response rating (0 to 100), Corn ([13]; 125 g ai/ha)
98: Plant response rating (0 to 100), Lambsquarters ([7]; 62 g ai/ha) | Plant response rating (0 to 100), Lambsquarters ([7]; 125 g ai/ha)
